Test [1] concerns mature adipocytes (3T3-L1 cells). The experiment in a line: Enhancing action on glucose uptake (2-deoxyglucose) into mature adipocytes. Type of test: cell-based. The conditions noted are these: Mus musculus, 3T3-L1, X=(S−N)/(P−N) of 2-deoxyglucose uptake, P=insulin 1 μg/mL, read-out: Enhancing Action on Glucose Uptake. As for the experimental part: The induction of differentation into nature adipocytes was carried out by partially modifying the above-mentioned method of Rubin C. S. et al. 3T3-L1 cells (ATCC CCL-92.1) were suspended in a 10% fetal bovine serum (manufactured by Bio Whittaker)-containing Dulbecco's modified Eagle's medium (manufactured by Sigma, D6046) containing 200 μM ascorbic acid so as to have a density of 4×10^3 cells/mL, and the suspension was put in each well of a collagen type I-coated 12-well plate (Iwaki Glass Co., Ltd., code 4815-010) in an amount of 2 mL per well. The cells were cultured at 37° C. for 7 days in the presence of 5% carbon dioxide gas. On the seventh day, the medium was exchanged with 2 mL of a 10% fetal bovine serum (manufactured by Bio Whittaker)-containing Dulbecco's modified Eagle's medium containing 200 μM ascorbic acid, 0.25 μM dexamethasone, 10 μg/mL insulin (manufactured by TAKARA BIO INC.) and 0.5 mM 3-isobutyl-1-methylxanthine (manufactured by nacalai tesque, 19624-86). After 45 hours, the medium was exchanged with 2 mL of a 10% fetal bovine serum-containing Dulbecco's modified Eagle's medium containing 200 μM ascorbic acid and 5 μg/mL insulin. The medium was exchanged on after 2 days and 5 days, and the cells were cultured for 7 days, to give mature adipocytes.
As the evaluation of the enhancing action on glucose uptake, and also as the evaluation of the insulin-mimetic action, the amount of 2-deoxyglucose uptake into mature adipocytes during the stimulation of the test compound in the adipocytes was determined. As a test compound, a compound prepared in the Examples mentioned above or a commercially available compound was used.
After the termination of the culture, the medium was removed, and the cells were washed twice with a 0.1% (w/v) bovine serum albumin (manufactured by Sigma, A8022)-containing Dulbecco's modified Eagle's medium. Thereafter, 1 mL of the same medium containing a test compound in a concentration shown in each of Tables 20 to 23 was put to each well. The cells were cultured overnight at 37° C. in the presence of 5% carbon dioxide gas. Here, a group without containing the test compound was set as a negative control. After the overnight culture, the cells were washed twice with a HEPES buffer (140 mM NaCl, 5 mM KCl, 2.5 mM MgSO4, 1 mM CaCl2, 20 mM HEPES-Na (pH 7.4)). The amount 0.9 mL of the buffer containing a test compound in the same concentration was added to each well. The cells were cultured at 37° C. for 75 minutes. During the culture, as a positive control, there was set a group with addition of insulin to the well without addition of a test compound at a point 45 minutes passed so as to have a final concentration of 1 μg/mL. Thereafter, 100 μL of a HEPES buffer containing 0.5 μCi/mL 2-deoxy-[1,2-^3H(N)]-glucose (manufactured by PerkinElmer Life Sciences Inc., NET549A) and 1 mM 2-deoxyglucose (manufactured by nacalai tesque, 10722-11) was added thereto. The cells were cultured at 37° C. for additional 10 minutes. After the termination of the culture, the supernatant was removed, and the cells were washed three times with a phosphate buffer cooled to 4° C. Thereafter, 0.5 mL of a 1% Nonidet P-40-containing phosphate buffer was added to lyse the cells, whereby 2-deoxy-[1,2-^3H(N)]-glucose subjected to uptake into the cells was eluted. The radioactivity was determined with a liquid scintillation counter LS6500 (manufactured by Beckmann) using 25 μL of the supernatant with Ultima Gold (manufactured by PerkinElmer Life Sciences Inc., 6013329) as a scintillation cocktail. The enhancing action on glucose uptake was calculated by the following calculation formula, and shown by four ranks of +++, ++, + and +/−. • S: Amount of 2-deoxyglucose uptake in the presence of a test compound; • N: Amount of 2-deoxyglucose uptake in the negative control; and • P: Amount of 2-deoxyglucose uptake in the positive control; X=(S−N)/(P−N) (Judgment of Enhancing Action for 2-Deoxyglucose Uptake)

The next test concerns 3T3-L1 cells. In words: Induction of adipocyte differentiation (amount of triglyceride biosynthesis). Type of test: cell-based. The note with it: Mus musculus, 3T3-L1, X=(S−N)/(P−N) of amount of triglyceride, P=insulin positive control, read-out: Action for Induction of Differentiation. As for the experimental part:
Induction of adipocyte differentiation was carried out by partially modifying the above-mentioned method of Rubin C. S. et al. In addition, as a test compound, a compound prepared in Examples mentioned above or a commercially available compound was used. 3T3-L1 cells (ATCC CCL-92.1) were suspended in a 10% fetal bovine serum (manufactured by Bio Whittaker)-containing Dulbecco's modified Eagle's medium (manufactured by Sigma, D6046) containing 200 μM ascorbic acid so as to have a density of 4×10^3 cells/mL, and the suspension was put in each well of a 12-well microtiter plate in an amount of 2 ml per well. The cells were cultured at 37° C. for 7 days in the presence of 5% carbon dioxide gas. On the seventh day, the medium was exchanged with a 10% fetal bovine serum (manufactured by Bio Whittaker)-containing Dulbecco's modified Eagle's medium containing 200 μM ascorbic acid and 0.25 μM dexamethasone, and a test compound dissolved in dimethyl sulfoxide in a concentration shown in each of Tables 16 to 19 was added to each well. Here, there were set a group with addition of 4 μL of an aqueous solution containing 5 mg/mL insulin (manufactured by TAKARA BIO INC.) as a positive control, and a group with addition of dimethyl sulfoxide as a negative control. After 45 hours, the medium was exchanged with a 10% fetal bovine serum-containing Dulbecco's modified Eagle's medium containing 200 μM ascorbic acid. A test compound, 2 μL of an aqueous solution containing 5 mg/mL insulin as a positive control, or dimethyl sulfoxide as a negative control was put to each well in the same concentration. The cells were cultured for additional 7 days. In addition, the medium was exchanged on after 2 days and after 5 days, and at that time, a test compound, 2 μL of an aqueous solution containing 5 mg/mL insulin as a positive control, or dimethyl sulfoxide as a negative control was put to each well in the same concentration.
The amount of triglyceride in the adipocytes was determined as an index of induction of differentiation into mature adipocytes, and also, as the evaluation of insulin-mimetic action.
After the termination of the culture, the medium was removed, and the cells were washed twice with a phosphate buffered saline. One milliliter of a solvent of hexane:isopropanol=3:2 was added to the cells. The mixture was allowed to stand at room temperature for 30 minutes, and thereafter the supernatant was collected. The procedures were repeated again, and 2 mL of the supernatant was concentrated to dryness. The precipitate was dissolved in 100 μL of isopropanol, and the amount of triglyceride contained in 10 μL of the solution was determined using a triglyceride E-test (manufactured by Wako Pure Chemical Industries, Ltd., code 432-40201). In addition, all the determinations were carried out twice. The action for induction of differentiation was calculated by the following calculation formula, and shown by four ranks of +++, ++, + and +/−. • S: Amount of triglyceride in the presence of a test compound; • N: Amount of triglyceride in the negative control; and • P: Amount of triglyceride in the positive control; X=(S−N)/(P−N) (Judgment of Action for Induction of Differentiation)

Consider `CCOc1ccc(C(C)=O)c(O)c1C/C=C(\C)CCC=C(C)C` [Compound (C048), 2′-hydroxy-3′-geranyl-4′-ethoxyacetophenone], for which, in test [1], the activation at 3 µM was 15 to 30%, the activation at 10 µM lay in the range of 30 to 60% and the activation at 30 µM is over 100%. Moreover, in the test with 3T3-L1 cells, the activation at 10 µM was over 100% and the activation at 30 µM is over 100%.
Take `CCOc1ccc(C(=O)/C=C/c2ccc(O)cc2)c(O)c1CC=C(C)C` [Compound (C049), 4,2′-dihydroxy-3′-prenyl-4′-ethoxychalcone]: in test [1], the activation at 10 µM lay in the range of 30 to 60% and the activation at 30 µM is over 100%. Moreover, in the test on 3T3-L1 cells, the activation at 3 µM was 15 to 30% and the activation at 10 µM lay within 15 to 30%.
For the molecule `COc1ccc(C(C)=O)c(O)c1C/C=C(\C)CC/C=C(\C)CCC=C(C)C` [Compound (C052), 2′-hydroxy-3′-farnesyl-4′-methoxyacetophenone], in test [1], the activation at 3 µM lay in the range of 15 to 30%, the activation at 10 µM lay within 30 to 60% and the activation at 30 µM lay in the range of 30 to 60%. Also, in the test on 3T3-L1 cells, the activation at 10 µM fell in the range of 30 to 60%.
Take `COc1ccc(C(C)=O)c(O)c1Cc1ccccc1` [Compound (C055), 2′-hydroxy-3′-benzyl-4′-methoxyacetophenone]: in test [1], the activation at 3 µM lay in the range of 15 to 30%, the activation at 10 µM was 30 to 60% and the activation at 30 µM lay within 60 to 100%. For the same molecule, in the test on 3T3-L1 cells, the activation at 3 µM fell in the range of 15 to 30% and the activation at 10 µM lay within 30 to 60%.
As to `COc1ccc(C(=O)/C=C/c2ccc(O)cc2)c(O)c1Cc1ccccc1` [Compound (C056), 4,2′-dihydroxy-3′-benzyl-4′-methoxychalcone], in test [1], the activation at 3 µM lay in the range of 15 to 30%, the activation at 10 µM was over 100% and the activation at 30 µM is over 100%. For the same molecule, the activation at 1 µM in the test with 3T3-L1 cells (1 μM) lay within 15 to 30%. In the test on 3T3-L1 cells, the activation at 3 µM was 30 to 60% and the activation at 10 µM is over 100%.
For the molecule `O=C(/C=C/c1ccc(O)cc1)c1ccc(O)c(Cc2ccccc2)c1O` [Compound (C057), 4,2′,4′-trihydroxy-3′-benzylchalcone], in test [1], the activation at 10 µM fell in the range of 15 to 30% and the activation at 30 µM is over 100%. In the test on 3T3-L1 cells, the activation at 3 µM was 30 to 60% and the activation at 10 µM is over 100%.
For `CC(=O)c1ccc(OCC=C(C)C)cc1C` [Compound (C059), 2′-methyl-4′-prenyloxyacetophenone], in test [1], the activation at 10 µM is 15 to 30% and the activation at 30 µM lay in the range of 30 to 60%. In the test on 3T3-L1 cells, the activation at 3 µM lay in the range of 15 to 30%, the activation at 10 µM is 30 to 60% and the activation at 30 µM is over 100%.
In the case of `CC(=O)Oc1ccc(/C=C/C(=O)c2ccc(OC(C)=O)c(C/C=C(\C)CCC=C(C)C)c2OC(C)=O)cc1` [Compound (C061), 4,2′,4′-triacetoxy-3′-geranylchalcone], in test [1], the activation at 30 µM fell in the range of 30 to 60%. In addition, in the test with 3T3-L1 cells, the activation at 3 µM is 60 to 100% and the activation at 10 µM is over 100%.
Take `COc1ccc(C(=O)/C=C/c2ccc(OC(C)=O)cc2)c(OC(C)=O)c1C/C=C(\C)CCC=C(C)C` [Compound (C064-1), 4,2′-diacetoxy-3′-geranyl-4′-methoxychalcone]: in test [1], the activation at 10 µM lay in the range of 60 to 100% and the activation at 30 µM is over 100%. Further, in the test with 3T3-L1 cells, the activation at 3 µM is over 100% and the activation at 10 µM is over 100%.
In the case of `COc1ccc(C(=O)/C=C/c2ccc(O)cc2)c(OC(C)=O)c1C/C=C(\C)CCC=C(C)C` [Compound (C064-2), 2′-acetoxy-3′-geranyl-4-hydroxy-4′-methoxychalcone], in test [1], the activation at 3 µM was in the range of 15 to 30%, the activation at 10 µM is 30 to 60% and the activation at 30 µM is over 100%. Further, in the test with 3T3-L1 cells, the activation at 3 µM was over 100% and the activation at 10 µM was over 100%.
For `O=C(/C=C/c1ccc(Cl)cc1)c1ccccc1OCc1ccccc1` [Compound (C066), 4-chloro-2′-benzyloxychalcone], in test [1], the activation at 10 µM was in the range of 60 to 100% and the activation at 30 µM was 60 to 100%. Also, in the test with 3T3-L1 cells, the activation at 3 µM was 60 to 100% and the activation at 10 µM is over 100%.
Consider `COc1ccc(/C=C/C(=O)c2ccc(OC)c(CC=C(C)C)c2O)c(O)c1CC=C(C)C` [Compound (C072), 2,2′-dihydroxy-3,3′-diprenyl-4,4′-dimethoxychalcone], for which the activation at 30 µM in test [1] lay in the range of 30 to 60%. For the same molecule, in the test on 3T3-L1 cells, the activation at 3 µM was over 100% and the activation at 10 µM was over 100%.
`CC(C)=CCC/C(C)=C/Cc1c(OCc2ccccc2)ccc(C(=O)/C=C/c2ccc(O)cc2)c1O` [Compound (C073), 4,2′-dihydroxy-3′-geranyl-4′-benzyloxychalcone]: the activation at 3 µM (in test [1]; in the test with 3T3-L1 cells) was 15 to 30% each time. Further, the activation at 10 µM in test [1] is 15 to 30%.

For the origin of these results see patent publication US20070092551A1, “Therapeutic agent” (TAKARA BIO INC., priority 2003, published 2007).
